The test system of one experiment is KDM5A/B. In words: In vitro cell-based assay: immuno-blot quantification of tri-methyl H3K4 in ZR-75-1 breast cancer cells. To be noted: 72 hours, tri-methyl H3K4 level relative to GAPDH, percent of DMSO, read-out: Cellular IC50. An outline of the steps: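 ZR-75-1 breast cancer cells treated 72 h with 11-point compound dilutions (1250 μM to 10 nM). H3K4me3 quantified by infrared immunoblot densitometry, normalized to GAPDH and expressed as percent of DMSO control; relative IC50 from curve fit.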

The target of the next experiment is T1, Jarid1B (Homo sapiens, UniProt Q9UGL1).
T1 construct: purchased BPS Bioscience or custom made by MolecularThroughput 50121
T1 sequence (Q9UGL1 2-751): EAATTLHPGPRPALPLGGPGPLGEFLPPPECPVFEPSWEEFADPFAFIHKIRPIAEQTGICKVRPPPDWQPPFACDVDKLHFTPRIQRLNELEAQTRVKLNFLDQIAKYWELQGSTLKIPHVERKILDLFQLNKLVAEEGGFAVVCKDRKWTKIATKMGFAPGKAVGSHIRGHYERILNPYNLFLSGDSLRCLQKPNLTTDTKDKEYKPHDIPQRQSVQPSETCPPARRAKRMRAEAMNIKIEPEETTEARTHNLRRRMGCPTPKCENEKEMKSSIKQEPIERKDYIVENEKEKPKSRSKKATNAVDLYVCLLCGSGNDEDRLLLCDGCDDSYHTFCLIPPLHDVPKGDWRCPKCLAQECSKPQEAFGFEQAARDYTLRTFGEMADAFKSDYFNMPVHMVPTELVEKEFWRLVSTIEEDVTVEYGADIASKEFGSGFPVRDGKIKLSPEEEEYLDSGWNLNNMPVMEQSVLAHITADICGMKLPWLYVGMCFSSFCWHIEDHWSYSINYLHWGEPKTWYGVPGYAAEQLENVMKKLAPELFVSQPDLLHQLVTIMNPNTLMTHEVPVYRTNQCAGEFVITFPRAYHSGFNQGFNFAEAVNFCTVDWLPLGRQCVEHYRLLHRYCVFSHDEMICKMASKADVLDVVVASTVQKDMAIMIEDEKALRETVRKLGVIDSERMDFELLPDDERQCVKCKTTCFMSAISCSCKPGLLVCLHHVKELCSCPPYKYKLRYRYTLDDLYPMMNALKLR
In words: Jarid1B in vitro enzyme inhibition assay (TR-FRET). In kind it is biochemical. An outline of the steps: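 Jarid1B (AA 2-751, baculovirus-expressed) at 0.8 nM with 300 nM biotin-H3K4me3 peptide and 2 μM α-ketoglutarate in HEPES pH 7.3 with ascorbate and Fe(II), 30 min at room temperature. Stopped with EDTA; H3K4me1-2 product detected by TR-FRET (665/615 ratio) and IC50 fitted from 11-point dilutions.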

For the compound `CC(=O)N1CC[C@H](n2cc(Oc3nc(O)c4ccncc4n3)cn2)C1` [Example 139, 1-[(3S)-3-[4-({4-hydroxypyrido[3,4-d]pyrimidin-2-yl}oxy)-1H-pyrazol-1-yl]pyrrolidin-1-yl]ethan-1-one], the IC50 (as a rule, the concentration at which inhibition is half-maximal) in the experiment on KDM5A/B is over 10000 nM; at Jarid1B, at most 100 nM.

`N#CCC(=O)N1CC[C@H](n2cc(Oc3nc(O)c4ccncc4n3)cn2)C1` [Example 140, 3-[(3S)-3-[4-({4-hydroxypyrido[3,4-d]pyrimidin-2-yl}oxy)-1H-pyrazol-1-yl]pyrrolidin-1-yl]-3-oxopropanenitrile]: the figures for the IC50 in the experiment with KDM5A/B and at Jarid1B were over 10000 nM and at most 100 nM, respectively.

Regarding `O=C(C1CC1)N1CC[C@H](n2cc(Oc3nc(O)c4ccncc4n3)cn2)C1` [Example 141, 2-({1-[(3S)-1-cyclopropanecarbonylpyrrolidin-3-yl]-1H-pyrazol-4-yl}oxy)pyrido[3,4-d]pyrimidin-4-ol], the IC50 was over 10000 nM with KDM5A/B and at most 100 nM on Jarid1B.

Take `O=C(c1ccccc1)N1CC[C@H](n2cc(Oc3nc(O)c4ccncc4n3)cn2)C1` [Example 142, 2-({1-[(3S)-1-benzoylpyrrolidin-3-yl]-1H-pyrazol-4-yl}oxy)pyrido[3,4-d]pyrimidin-4-ol]: the IC50 in the experiment with KDM5A/B was over 10000 nM; on Jarid1B, at most 100 nM.

As to `Oc1nc(Oc2cnn([C@H]3CCN(c4ccccc4)C3)c2)nc2cnccc12` [Example 145, 2-({1-[(3S)-1-phenylpyrrolidin-3-yl]-1H-pyrazol-4-yl}oxy)pyrido[3,4-d]pyrimidin-4-ol], the IC50 was 1000 to 10000 nM in the experiment with KDM5A/B and at most 100 nM on Jarid1B.

As to `Oc1nc(Oc2cnn([C@H]3CCN(c4ccc(F)cc4)C3)c2)nc2cnccc12` [Example 146, 2-({1-[(3S)-1-(4-fluorophenyl)pyrrolidin-3-yl]-1H-pyrazol-4-yl}oxy)pyrido[3,4-d]pyrimidin-4-ol], the IC50 with KDM5A/B was 1000 to 10000 nM; against Jarid1B, at most 100 nM.

With `Oc1nc(Oc2cnn([C@H]3CCN(c4ccccc4F)C3)c2)nc2cnccc12` [Example 147, 2-({1-[(3S)-1-(2-fluorophenyl)pyrrolidin-3-yl]-1H-pyrazol-4-yl}oxy)pyrido[3,4-d]pyrimidin-4-ol], the figures for the IC50 with KDM5A/B and against Jarid1B were 1000 to 10000 nM and at most 100 nM, respectively.

Turning to `Oc1nc(Oc2cnn([C@H]3CCN(c4ccc(Cl)cc4)C3)c2)nc2cnccc12` [Example 148, 2-({1-[(3S)-1-(4-chlorophenyl)pyrrolidin-3-yl]-1H-pyrazol-4-yl}oxy)pyrido[3,4-d]pyrimidin-4-ol], the IC50 was 1000 to 10000 nM in the experiment on KDM5A/B and at most 100 nM at Jarid1B.

With `CCS(=O)(=O)N1CCC[C@@H](n2cc(Oc3nc(O)c4ccncc4n3)cn2)C1` [Example 150, 2-({1-[(3R)-1-(ethanesulfonyl)piperidin-3-yl]-1H-pyrazol-4-yl}oxy)pyrido[3,4-d]pyrimidin-4-ol], the IC50 in the experiment with KDM5A/B is 100 to 1000 nM; against Jarid1B it was at most 100 nM.

For the compound `CC(=O)N1CCC[C@@H](n2cc(Oc3nc(O)c4ccncc4n3)cn2)C1` [Example 153, 1-[(3R)-3-[4-({4-hydroxypyrido[3,4-d]pyrimidin-2-yl}oxy)-1H-pyrazol-1-yl]piperidin-1-yl]ethan-1-one], the values for the IC50 with KDM5A/B and against Jarid1B were 1000 to 10000 nM and at most 100 nM, respectively.

Regarding `N#CCC(=O)N1CCC[C@@H](n2cc(Oc3nc(O)c4ccncc4n3)cn2)C1` [Example 154, 3-[(3R)-3-[4-({4-hydroxypyrido[3,4-d]pyrimidin-2-yl}oxy)-1H-pyrazol-1-yl]piperidin-1-yl]-3-oxopropanenitrile], the results for the IC50 in the experiment with KDM5A/B and against Jarid1B were over 10000 nM and at most 100 nM, respectively.

With `O=C(CO)N1CC[C@H](n2cc(Oc3nc(O)c4ccncc4n3)cn2)C1` [Example 155, 2-hydroxy-1-[(3S)-3-[4-({4-hydroxypyrido[3,4-d]pyrimidin-2-yl}oxy)-1H-pyrazol-1-yl]pyrrolidin-1-yl]ethan-1-one], the IC50 in the experiment with KDM5A/B is 1000 to 10000 nM; against Jarid1B it was at most 100 nM.

With `O=C(C1CC1)N1CCC[C@@H](n2cc(Oc3nc(O)c4ccncc4n3)cn2)C1` [Example 156, 2-({1-[(3R)-1-cyclopropanecarbonylpiperidin-3-yl]-1H-pyrazol-4-yl}oxy)pyrido[3,4-d]pyrimidin-4-ol], the IC50 was over 10000 nM with KDM5A/B and at most 100 nM at Jarid1B.

In the case of `O=C(c1ccccc1)N1CCC[C@@H](n2cc(Oc3nc(O)c4ccncc4n3)cn2)C1` [Example 157, 2-({1-[(3R)-1-benzoylpiperidin-3-yl]-1H-pyrazol-4-yl}oxy)pyrido[3,4-d]pyrimidin-4-ol], the IC50 was 1000 to 10000 nM in the experiment on KDM5A/B and at most 100 nM against Jarid1B.

With `Oc1nc(Oc2cnn([C@@H]3CCCN(Cc4ccccc4)C3)c2)nc2cnccc12` [Example 158, 2-({1-[(3R)-1-benzylpiperidin-3-yl]-1H-pyrazol-4-yl}oxy)pyrido[3,4-d]pyrimidin-4-ol], the IC50 with KDM5A/B is 100 to 1000 nM; against Jarid1B it was at most 100 nM.

For the compound `Oc1nc(Oc2cnn([C@@H]3CCCN(c4ccc(F)cc4)C3)c2)nc2cnccc12` [Example 159, 2-({1-[(3R)-1-(4-fluorophenyl)piperidin-3-yl]-1H-pyrazol-4-yl}oxy)pyrido[3,4-d]pyrimidin-4-ol], the IC50 with KDM5A/B is 1000 to 10000 nM; against Jarid1B, at most 100 nM.

Take `CCS(=O)(=O)N1CCC[C@H](n2cc(Oc3nc(O)c4ccncc4n3)cn2)C1` [Example 161, 2-({1-[(3S)-1-(ethanesulfonyl)piperidin-3-yl]-1H-pyrazol-4-yl}oxy)pyrido[3,4-d]pyrimidin-4-ol]: the IC50 was 100 to 1000 nM in the experiment on KDM5A/B and at most 100 nM on Jarid1B.

For `O=S(=O)(C1CC1)N1CCC[C@H](n2cc(Oc3nc(O)c4ccncc4n3)cn2)C1` [Example 162, 2-({1-[(3S)-1-(cyclopropanesulfonyl)piperidin-3-yl]-1H-pyrazol-4-yl}oxy)pyrido[3,4-d]pyrimidin-4-ol], the IC50 in the experiment with KDM5A/B is 100 to 1000 nM; on Jarid1B it was at most 100 nM.

In the case of `O=S(=O)(c1ccccc1)N1CCC[C@H](n2cc(Oc3nc(O)c4ccncc4n3)cn2)C1` [Example 163, 2-({1-[(3S)-1-(benzenesulfonyl)piperidin-3-yl]-1H-pyrazol-4-yl}oxy)pyrido[3,4-d]pyrimidin-4-ol], the values for the IC50 in the experiment with KDM5A/B and at Jarid1B were 100 to 1000 nM and at most 100 nM, respectively.

In the case of `CC(=O)N1CCC[C@H](n2cc(Oc3nc(O)c4ccncc4n3)cn2)C1` [Example 164, 1-[(3S)-3-[4-({4-hydroxypyrido[3,4-d]pyrimidin-2-yl}oxy)-1H-pyrazol-1-yl]piperidin-1-yl]ethan-1-one], the results for the IC50 in the experiment with KDM5A/B and against Jarid1B were 1000 to 10000 nM and at most 100 nM, respectively.

As to `O=C(C1CC1)N1CCC[C@H](n2cc(Oc3nc(O)c4ccncc4n3)cn2)C1` [Example 165, 2-({1-[(3S)-1-cyclopropanecarbonylpiperidin-3-yl]-1H-pyrazol-4-yl}oxy)pyrido[3,4-d]pyrimidin-4-ol], the IC50 in the experiment on KDM5A/B is 1000 to 10000 nM; against Jarid1B it was at most 100 nM.

On to `N#CCC(=O)N1CCC[C@H](n2cc(Oc3nc(O)c4ccncc4n3)cn2)C1` [Example 166, 3-[(3S)-3-[4-({4-hydroxypyrido[3,4-d]pyrimidin-2-yl}oxy)-1H-pyrazol-1-yl]piperidin-1-yl]-3-oxopropanenitrile], for which the figures for the IC50 in the experiment with KDM5A/B and at Jarid1B were over 10000 nM and at most 100 nM, respectively.

On to `O=C(c1ccccc1)N1CCC[C@H](n2cc(Oc3nc(O)c4ccncc4n3)cn2)C1` [Example 167, 2-({1-[(3S)-1-benzoylpiperidin-3-yl]-1H-pyrazol-4-yl}oxy)pyrido[3,4-d]pyrimidin-4-ol], for which the IC50 in the experiment with KDM5A/B was 1000 to 10000 nM; on Jarid1B, at most 100 nM.

As to `Oc1nc(Oc2cnn([C@H]3CCCN(Cc4ccccc4)C3)c2)nc2cnccc12` [Example 168, 2-({1-[(3S)-1-benzylpiperidin-3-yl]-1H-pyrazol-4-yl}oxy)pyrido[3,4-d]pyrimidin-4-ol], the results for the IC50 with KDM5A/B and against Jarid1B were 1000 to 10000 nM and at most 100 nM, respectively.

The values above are taken from patent publication US10526327B2, “Histone demethylase inhibitors” (CELGENE QUANTICEL RESEARCH, INC., priority 2013, dated 2020).
